Values after ≈ are worked out from the molar mass of the structure shown. Like-named read-outs stand apart in the source and are kept apart here.
Tested on: Enterobacterales
Assay: MIC, broth microdilution, CDC/FDA Antibiotic Resistance Isolate Bank (Example 7, Tables 8, 11, 12)
Format: cell-based
Conditions: for MIC50: carbapenemase-producing Enterobacterales, read-out: MIC50

CC(C)(O/N=C(\C(=O)N[C@@H]1C(=O)N2C(C(=O)[O-])=C(C[N+]3(CCNC(=O)c4ccc(O)c(O)c4Cl)CCCC3)CS[C@H]12)c1csc(N)n1)C(=O)O [Cefiderocol, cefiderocol]
MIC (Klebsiella pneumoniae, KUB No. 5612, AR Bank # 115, read-out: MIC): 0.5 µg/mL (≈ 0.665 µM) | MIC (Klebsiella pneumoniae, KUB No. 5614, AR Bank # 117, read-out: MIC): 2 µg/mL (≈ 2.66 µM) | MIC (Klebsiella pneumoniae, KUB No. 5617, AR Bank # 120, read-out: MIC): 0.25 µg/mL (≈ 0.332 µM) | MIC (Klebsiella pneumoniae, KUB No. 5622, AR Bank # 125, read-out: MIC): 1 µg/mL (≈ 1.33 µM) | MIC (Klebsiella pneumoniae, KUB No. 5623, AR Bank # 126, read-out: MIC): ≤ 0.06 µg/mL | MIC (Klebsiella pneumoniae, KUB No. 5626, AR Bank # 129, read-out: MIC): 1 µg/mL (≈ 1.33 µM) | MIC (Klebsiella pneumoniae, KUB No. 5632, AR Bank # 135, read-out: MIC): 1 µg/mL (≈ 1.33 µM) | MIC (Klebsiella pneumoniae, KUB No. 5635, AR Bank # 138, read-out: MIC): 1 µg/mL (≈ 1.33 µM) | MIC (Klebsiella pneumoniae, KUB No. 5636, AR Bank # 139, read-out: MIC): 0.12 µg/mL (≈ 0.16 µM) | MIC (Klebsiella pneumoniae, KUB No. 5637, AR Bank # 140, read-out: MIC): 0.12 µg/mL (≈ 0.16 µM) | MIC (Klebsiella pneumoniae, KUB No. 5638, AR Bank # 141, read-out: MIC): ≤ 0.06 µg/mL | MIC (Klebsiella pneumoniae, KUB No. 5639, AR Bank # 142, read-out: MIC): < 0.06 µg/mL | MIC (Klebsiella pneumoniae, KUB No. 5640, AR Bank # 143, read-out: MIC): 1 µg/mL (≈ 1.33 µM) | MIC (Klebsiella pneumoniae, KUB No. 5642, AR Bank # 145, read-out: MIC): 0.25 µg/mL (≈ 0.332 µM) | MIC (Klebsiella pneumoniae, KUB No. 5643, AR Bank # 146, read-out: MIC): 0.25 µg/mL (≈ 0.332 µM) | MIC (Klebsiella pneumoniae, KUB No. 5645, AR Bank # 148, read-out: MIC): 0.5 µg/mL (≈ 0.665 µM) | MIC (Klebsiella pneumoniae, KUB No. 5649, AR Bank # 152, read-out: MIC): 0.25 µg/mL (≈ 0.332 µM) | MIC (Klebsiella pneumoniae, KUB No. 5650, AR Bank # 153, read-out: MIC): 1 µg/mL (≈ 1.33 µM) | MIC (Klebsiella pneumoniae, KUB No. 5655, AR Bank # 158, read-out: MIC): 0.5 µg/mL (≈ 0.665 µM) | MIC (Klebsiella pneumoniae, KUB No. 5657, AR Bank # 160, read-out: MIC): 0.25 µg/mL (≈ 0.332 µM) | MIC (Klebsiella pneumoniae, KUB No. 5757, AR Bank # 361, read-out: MIC): 1 µg/mL (≈ 1.33 µM) | MIC (Klebsiella pneumoniae, KUB No. 5759, AR Bank # 363, read-out: MIC): 0.25 µg/mL (≈ 0.332 µM) | MIC (Klebsiella pneumoniae, KUB No. 5760, AR Bank # 364, read-out: MIC): 2 µg/mL (≈ 2.66 µM) | MIC (Klebsiella pneumoniae, KUB No. 5772, AR Bank # 376, read-out: MIC): 1 µg/mL (≈ 1.33 µM) | MIC (Klebsiella pneumoniae, Klebsiella pneumoniae KUB No. 5784, AR Bank #438, read-out: MIC): 0.5 µg/mL (≈ 0.665 µM) | MIC (Klebsiella pneumoniae, Klebsiella pneumoniae KUB No. 5797, AR Bank #453, read-out: MIC): 0.25 µg/mL (≈ 0.332 µM) | MIC (Klebsiella pneumoniae, Klebsiella pneumoniae KUB No. 5809, AR Bank #504, read-out: MIC): 0.25 µg/mL (≈ 0.332 µM) | MIC (Klebsiella pneumoniae, Klebsiella pneumoniae KUB No. 5810, AR Bank #505, read-out: MIC): 0.5 µg/mL (≈ 0.665 µM) | MIC (Klebsiella pneumoniae, Klebsiella pneumoniae KUB No. 5811, AR Bank #506, read-out: MIC): 2 µg/mL (≈ 2.66 µM) | MIC (Klebsiella pneumoniae, Klebsiella pneumoniae KUB No. 5812, AR Bank #507, read-out: MIC): 2 µg/mL (≈ 2.66 µM) | MIC (Klebsiella pneumoniae, Klebsiella pneumoniae KUB No. 5827, AR Bank #522, read-out: MIC): 2 µg/mL (≈ 2.66 µM) | MIC (Klebsiella pneumoniae, Klebsiella pneumoniae KUB No. 5828, AR Bank #523, read-out: MIC): 1 µg/mL (≈ 1.33 µM) | MIC (Klebsiella pneumoniae, Klebsiella pneumoniae KUB No. 5829, AR Bank #524, read-out: MIC): 0.5 µg/mL (≈ 0.665 µM) | MIC (Klebsiella pneumoniae, Klebsiella pneumoniae KUB No. 5830, AR Bank #525, read-out: MIC): 2 µg/mL (≈ 2.66 µM) | MIC (Kluyvera ascorbata, KUB No. 5641, AR Bank # 144, read-out: MIC): ≤ 0.06 µg/mL | MIC (Morganella morganii, KUB No. 5630, AR Bank # 133, read-out: MIC): ≤ 0.06 µg/mL | MIC (Proteus mirabilis, KUB No. 5556, AR Bank# 59, read-out: MIC): 0.25 µg/mL (≈ 0.332 µM) | MIC (Proteus mirabilis, KUB No. 5652, AR Bank # 155, read-out: MIC): ≤ 0.06 µg/mL | MIC (Proteus mirabilis, KUB No. 5653, AR Bank # 156, read-out: MIC): < 0.06 µg/mL | MIC (Proteus mirabilis, KUB No. 5656, AR Bank # 159, read-out: MIC): 0.5 µg/mL (≈ 0.665 µM) | MIC (Proteus mirabilis, KUB No. 5773, AR Bank # 377, read-out: MIC): ≤ 0.06 µg/mL | MIC (Proteus mirabilis, KUB No. 5775, AR Bank # 379, read-out: MIC): 2 µg/mL (≈ 2.66 µM) | MIC (Providencia rettgeri, KUB No. 5579, AR Bank # 82, read-out: MIC): ≤ 0.06 µg/mL | MIC (Salmonella enterica, Salmonella Senftenberg, KUB No. 5624, AR Bank # 127, read-out: MIC): 1 µg/mL (≈ 1.33 µM) | MIC (Serratia marcescens, KUB No. 5588, AR Bank # 91, read-out: MIC): ≤ 0.06 µg/mL | MIC (Serratia marcescens, KUB No. 5596, AR Bank # 99, read-out: MIC): 0.25 µg/mL (≈ 0.332 µM) | MIC (Serratia marcescens, KUB No. 5618, AR Bank # 121, read-out: MIC): 0.12 µg/mL (≈ 0.16 µM) | MIC (Serratia marcescens, KUB No. 5619, AR Bank # 122, read-out: MIC): 0.12 µg/mL (≈ 0.16 µM) | MIC (Serratia marcescens, KUB No. 5620, AR Bank # 123, read-out: MIC): < 0.06 µg/mL | MIC (Serratia marcescens, KUB No. 5621, AR Bank # 124): ≤0.0 µg/mL | MIC (Serratia marcescens, KUB No. 5627, AR Bank # 130, read-out: MIC): 0.12 µg/mL (≈ 0.16 µM) | MIC (Serratia marcescens, KUB No. 5628, AR Bank # 131, read-out: MIC): 50.1 µg/mL (≈ 66.5 µM) | MIC (Serratia marcescens, Serratia marcescens KUB No. 5822, AR Bank #517, read-out: MIC): 2 µg/mL (≈ 2.66 µM) | MIC (Serratia marcescens, Serratia marcescens KUB No. 5826, AR Bank #521, read-out: MIC): 0.5 µg/mL (≈ 0.665 µM) | MIC50 (Metallo-β-lactamase (N = 47)): 1 µg/mL (≈ 1.33 µM) | MIC50 (Serine carbapenemase (N=61)): 0.25 µg/mL (≈ 0.332 µM)

Source: patent EP4635500A1, “THERAPEUTIC AGENT FOR BACTERIAL INFECTION” (Sumitomo Pharma Co., Ltd., priority 2022, dated 2024)
